{"source": "patent US10945966B2", "about": "“PEGylated lipid nanoparticle with bioactive lipophilic compound” (Eyesiu Medicines B.V., priority 2015, dated 2021)", "system": "imiquimod (IMQ)-induced psoriasis-like skin inflammation", "assay": "Imiquimod (IMQ)-induced psoriasis-like skin inflammation", "type": "in vivo, mice", "details": "daily topical", "protocol": "A nanoparticle composition comprising the macrolide tacrolimus was produced as detailed in Example 2. The resulting composition was formulated in a spray suitable for topical delivery on the skin. The efficacy of the produced nanoparticles was subsequently tested in an imiquimod (IMQ)-induced psoriasis-like skin inflammation in mice. To this end, psoriasis-like skin inflammation was induced on the ears and shaved backs of the mice by the daily application of 50 mg of 5% Imiquimod (IMQ) cream. Compared to naïve mice, animals treated with IMQ developed clinical signs of disease including statistically significant increases in psoriasis clinical score and ear thickness over time as well as increased spleen weight (splenomegaly) upon termination of the experiment."}
{"smiles": "C[C@H]1C[C@H]2[C@@H]3CCC4=CC(=O)C=C[C@]4(C)[C@@]3(F)[C@@H](O)C[C@]2(C)[C@@]1(O)C(=O)CCl", "note": "[Clobetasol]", "values": [{"measurement": "body weight", "setting": "unwanted side effect", "result": "significant reduction"}, {"measurement": "spleen weight", "setting": "compared to IMQ-only treated mice", "result": "significantly reduced"}, {"measurement": "psoriasis clinical score", "setting": "compared to IMQ-only treated mice, significant by day 3 and throughout the rest of the study", "result": "significantly reduced"}, {"measurement": "ear thickness", "setting": "compared to IMQ-only treated mice, significant by day 5 and throughout the rest of the study", "result": "significantly reduced"}]}
